Assay results taken from ChEMBL document CHEMBL5329166, “Discovery of imeglimin-inspired novel 1,3,5-triazine derivatives as antidiabetic agents in streptozotocin-induced diabetes in Wistar rats via inhibition of DPP-4” (RSC Med Chem, 2023).
Calls of active or inactive are those of the source. The calls are words filed in the database; no cut-off is given here.

How the values were obtained:
Dipeptidyl peptidase 8 = Dipeptidyl peptidase 8 (Homo sapiens, UniProt Q6V1X1); assay: Inhibition of N-terminal GST/His-tagged human recombinant DPP-8 (1 to 898 residues) expressed in Sf9 insect cells using Ala-Pro-AMC dipeptide as substrate by fluorescence based assay
Sequence of Dipeptidyl peptidase 8 (Q6V1X1 whole entry, the tested form may be a part): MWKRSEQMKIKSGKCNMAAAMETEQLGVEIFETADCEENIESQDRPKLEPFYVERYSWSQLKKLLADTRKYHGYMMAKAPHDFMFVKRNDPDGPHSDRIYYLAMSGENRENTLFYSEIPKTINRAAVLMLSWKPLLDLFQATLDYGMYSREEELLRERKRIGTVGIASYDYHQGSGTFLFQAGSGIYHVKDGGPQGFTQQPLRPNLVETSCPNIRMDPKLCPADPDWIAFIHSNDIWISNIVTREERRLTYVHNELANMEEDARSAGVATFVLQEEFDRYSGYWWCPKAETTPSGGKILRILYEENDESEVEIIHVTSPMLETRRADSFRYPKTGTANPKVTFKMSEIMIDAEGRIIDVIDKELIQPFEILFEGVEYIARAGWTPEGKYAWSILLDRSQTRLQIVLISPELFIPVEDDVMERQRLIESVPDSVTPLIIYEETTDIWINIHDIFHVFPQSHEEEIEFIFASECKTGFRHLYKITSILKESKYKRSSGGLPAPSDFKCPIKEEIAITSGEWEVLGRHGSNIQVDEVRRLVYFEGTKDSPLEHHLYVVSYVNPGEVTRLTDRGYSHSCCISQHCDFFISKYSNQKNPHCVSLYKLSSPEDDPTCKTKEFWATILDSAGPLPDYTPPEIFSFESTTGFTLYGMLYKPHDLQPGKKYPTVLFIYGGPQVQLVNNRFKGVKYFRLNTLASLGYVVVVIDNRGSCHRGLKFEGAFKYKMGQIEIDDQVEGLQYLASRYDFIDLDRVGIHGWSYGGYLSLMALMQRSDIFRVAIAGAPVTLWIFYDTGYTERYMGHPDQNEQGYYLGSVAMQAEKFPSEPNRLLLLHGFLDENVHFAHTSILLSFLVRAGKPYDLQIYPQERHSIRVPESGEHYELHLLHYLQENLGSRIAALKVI

Dipeptidyl peptidase 9 = Dipeptidyl peptidase 9 (Homo sapiens, UniProt Q86TI2); assay: Inhibition of N-terminal GST-tagged human recombinant DPP-9 short form (1 to 863 residues) expressed in Sf9 cells using Ala-Pro-AMC dipeptide as substrate by fluorescence based assay
Sequence of Dipeptidyl peptidase 9 (Q86TI2 whole entry, the tested form may be a part): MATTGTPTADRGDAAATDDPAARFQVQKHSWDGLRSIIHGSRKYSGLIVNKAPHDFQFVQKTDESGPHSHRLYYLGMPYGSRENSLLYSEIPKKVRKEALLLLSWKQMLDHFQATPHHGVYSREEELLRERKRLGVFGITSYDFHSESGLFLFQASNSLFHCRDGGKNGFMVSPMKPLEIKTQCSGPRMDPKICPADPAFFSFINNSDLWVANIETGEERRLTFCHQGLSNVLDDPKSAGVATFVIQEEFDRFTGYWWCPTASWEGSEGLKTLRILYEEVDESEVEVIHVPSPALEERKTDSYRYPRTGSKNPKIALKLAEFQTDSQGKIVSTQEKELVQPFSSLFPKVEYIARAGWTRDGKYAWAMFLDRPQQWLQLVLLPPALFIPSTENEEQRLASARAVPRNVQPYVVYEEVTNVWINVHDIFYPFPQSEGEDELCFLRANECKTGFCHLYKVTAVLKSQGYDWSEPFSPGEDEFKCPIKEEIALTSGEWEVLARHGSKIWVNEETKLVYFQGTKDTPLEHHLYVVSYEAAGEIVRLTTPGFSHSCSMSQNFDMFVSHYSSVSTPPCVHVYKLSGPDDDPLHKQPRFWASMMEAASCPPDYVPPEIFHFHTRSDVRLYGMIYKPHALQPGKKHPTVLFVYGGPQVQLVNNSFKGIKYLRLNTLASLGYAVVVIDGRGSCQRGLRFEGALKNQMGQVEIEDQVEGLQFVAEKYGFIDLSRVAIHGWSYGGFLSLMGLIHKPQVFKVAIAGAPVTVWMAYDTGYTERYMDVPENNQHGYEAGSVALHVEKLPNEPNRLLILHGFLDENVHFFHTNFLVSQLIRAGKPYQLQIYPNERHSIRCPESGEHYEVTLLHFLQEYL

[1] = Antioxidant activity assessed as DPPH scavenging activity at 91.26 ug/ml incubated for 30 mins by absorbance based assay; format: functional; settings: dose 91.26 µg/ml
[2] = Acute toxicity in rat assessed as animal survival at 2000 mg/kg, po measured after 30 mins to 4 hrs; format: organism-based; settings: in vivo, time 0.5-4 hrs
[3] = Acute toxicity in rat assessed as change in animal skin and fur at 2000 mg/kg, po measured after 30 mins to 4 hrs; format: organism-based; settings: in vivo, time 0.5-4 hrs
[4] = Acute toxicity in rat assessed as change in eyes and mucous membranes at 2000 mg/kg, po measured after 30 mins to 4 hrs; format: organism-based; settings: in vivo, time 0.5-4 hrs
[5] = Acute toxicity in rat assessed as diarrhoea at 2000 mg/kg, po measured after 30 mins to 4 hrs; format: organism-based; settings: in vivo, time 0.5-4 hrs
[6] = Acute toxicity in rat assessed as change in sleep patterns at 2000 mg/kg, po measured after 30 mins to 4 hrs; format: organism-based; settings: in vivo, time 0.5-4 hrs
[7] = Acute toxicity in po dosed rat measured after 30 mins to 4 hrs; format: organism-based; settings: in vivo, time 0.5-4 hrs
[8] = Acute toxicity in rat assessed as change in animal skin at 300 to 1000 mg/kg, po measured after 6 hrs; format: organism-based; settings: in vivo, dose 300-1000 mg/kg
[9] = Acute toxicity in rat assessed as change in animal fur at 300 to 1000 mg/kg, po measured after 6 hrs; format: organism-based; settings: in vivo, dose 300-1000 mg/kg
[10] = Acute toxicity in rat assessed as change in animal eyes at 300 to 1000 mg/kg, po measured after 6 hrs; format: organism-based; settings: in vivo, dose 300-1000 mg/kg
[11] = Acute toxicity in rat assessed as change in mucosal membranes at 300 to 1000 mg/kg, po measured after 6 hrs; format: organism-based; settings: in vivo, dose 300-1000 mg/kg
[12] = Acute toxicity in rat assessed as diarrhoea at 300 to 1000 mg/kg, po measured after 6 hrs; format: organism-based; settings: in vivo, dose 300-1000 mg/kg
[13] = Acute toxicity in rat assessed as behavioural alterations at 300 to 1000 mg/kg, po measured after 6 hrs; format: organism-based; settings: in vivo, dose 300-1000 mg/kg
Rattus norvegicus [14] = assay: Antidiabetic activity in IG dosed high fat diet/STZ induced diabetic Wistar rat model assessed as reduction in blood sugar level pretreated with STZ for 21 days followed by compound treatment once daily for 21 days by glucose test strips based assay; format: functional, organism-based; settings: dose 3-30 mg/kg, time 21.0 day
Rattus norvegicus [15] = assay: Antidiabetic activity in high fat diet/STZ induced diabetic Wistar rat model assessed as increase in body weight at 3 to 30 mg/kg, IG pretreated with STZ for 21 days followed by compound treatment once daily for 21 days; format: functional, organism-based; settings: dose 3-30 mg/kg, time 21.0 day
Rattus norvegicus [16] = assay: Antidiabetic activity in high fat diet/STZ induced diabetic Wistar rat model assessed as reduction in VLDL level at 3 to 30 mg/kg, IG pretreated with STZ for 21 days followed by compound treatment once daily for 21 days by spectrophotometric analysis; format: functional, organism-based; settings: dose 3-30 mg/kg, time 21.0 day
Rattus norvegicus [17] = assay: Antioxidant activity in IG dosed high fat diet/STZ induced diabetic Wistar rat model assessed as reversal of SOD reduction in liver pretreated with STZ for 21 days followed by compound treatment once daily for 21 days by spectrophotometric analysis; format: functional, organism-based; settings: dose 3-30 mg/kg, time 21.0 day
Rattus norvegicus [18] = assay: Antioxidant activity in IG dosed high fat diet/STZ induced diabetic Wistar rat model assessed as reversal of CAT reduction in kidney pretreated with STZ for 21 days followed by compound treatment once daily for 21 days by spectrophotometric analysis; format: functional, organism-based; settings: dose 3-30 mg/kg, time 21.0 day
Rattus norvegicus [19] = assay: Antioxidant activity in IG dosed high fat diet/STZ induced diabetic Wistar rat model assessed as reversal of GSH reduction in kidney pretreated with STZ for 21 days followed by compound treatment once daily for 21 days by spectrophotometric analysis; format: functional, organism-based; settings: dose 3-30 mg/kg, time 21.0 day
Rattus norvegicus [20] = assay: Antioxidant activity in IG dosed high fat diet/STZ induced diabetic Wistar rat model assessed as reversal of GPx reduction in kidney pretreated with STZ for 21 days followed by compound treatment once daily for 21 days by spectrophotometric analysis; format: functional, organism-based; settings: dose 3-30 mg/kg, time 21.0 day
Rattus norvegicus [21] = assay: Antioxidant activity in IG dosed high fat diet/STZ induced diabetic Wistar rat model assessed as reversal of GPx reduction in liver pretreated with STZ for 21 days followed by compound treatment once daily for 21 days by spectrophotometric analysis; format: functional, organism-based; settings: dose 3-30 mg/kg, time 21.0 day
Rattus norvegicus [22] = assay: Antioxidant activity in high fat diet/STZ induced diabetic Wistar rat model assessed as repair of pancreatic epithelial cells with reduced inflammation at 30 mg/kg, IG pretreated with STZ for 21 days followed by compound treatment once daily for 21 days by H and E staining based microscopic analysis; format: functional, organism-based; settings: time 21.0 day
Rattus norvegicus [23] = assay: Antioxidant activity in high fat diet/STZ induced diabetic Wistar rat model assessed as repair of pancreatic epithelial cells with normal islets at 30 mg/kg, IG pretreated with STZ for 21 days followed by compound treatment once daily for 21 days by H and E staining based microscopic analysis; format: functional, organism-based; settings: time 21.0 day
Rattus norvegicus [24] = assay: Antioxidant activity in high fat diet/STZ induced diabetic Wistar rat model assessed as hepatocyte cytoplasm recovery at 30 mg/kg, IG pretreated with STZ for 21 days followed by compound treatment once daily for 21 days by H and E staining based microscopic analysis; format: functional, organism-based; settings: time 21.0 day
Rattus norvegicus [25] = assay: Antioxidant activity in high fat diet/STZ induced diabetic Wistar rat model assessed as appearance of dilated central veins in hepatocytes at 30 mg/kg, IG pretreated with STZ for 21 days followed by compound treatment once daily for 21 days by H and E staining based microscopic analysis; format: functional, organism-based; settings: time 21.0 day
Rattus norvegicus [26] = assay: Antioxidant activity in high fat diet/STZ induced diabetic Wistar rat model assessed as appearance of round-oval nuclei in hepatocytes at 30 mg/kg, IG pretreated with STZ for 21 days followed by compound treatment once daily for 21 days by H and E staining based microscopic analysis; format: functional, organism-based; settings: time 21.0 day
Rattus norvegicus [27] = assay: Antioxidant activity in high fat diet/STZ induced diabetic Wistar rat model assessed as reduction in lymphocyte level in renal stroma at 3 to 30 mg/kg, IG pretreated with STZ for 21 days followed by compound treatment once daily for 21 days by H and E staining based microscopic analysis; format: functional, organism-based; settings: dose 3-30 mg/kg, time 21.0 day
Rattus norvegicus [28] = assay: Antioxidant activity in high fat diet/STZ induced diabetic Wistar rat model assessed as reduction in glomeruli infiltration in stroma at 3 to 30 mg/kg, IG pretreated with STZ for 21 days followed by compound treatment once daily for 21 days by H and E staining based microscopic analysis; format: functional, organism-based; settings: dose 3-30 mg/kg, time 21.0 day
Rattus norvegicus [29] = assay: (§1) Antioxidant activity in high fat diet/STZ induced diabetic Wistar rat model assessed as reduction in hazy swelling of columnar cells in tubules at 3 mg/kg, IG pretreated with STZ for 21 days followed by compound treatment once daily for 21 days by H and E staining based microscopic analysis; format: functional, organism-based; settings: time 21.0 day
Rattus norvegicus [30] = assay: as §1, with “appearance of sufficient cloudy” for “reduction in hazy”, “10” for “3”; format: functional, organism-based; settings: time 21.0 day
Rattus norvegicus [31] = assay: Antioxidant activity in high fat diet/STZ induced diabetic Wistar rat model assessed as appearance of typical columnar cells in tubules at 30 mg/kg, IG pretreated with STZ for 21 days followed by compound treatment once daily for 21 days by H and E staining based microscopic analysis; format: functional, organism-based; settings: time 21.0 day

With `Nc1nc(NC2=NC(c3ccccc3)=CC(c3cccc([N+](=O)[O-])c3)O2)nc(N2CCOCC2)n1` (stereo not drawn) as the compound, how does the IC50 (Dipeptidyl peptidase 8) read?
The IC50 was greater than 400 nM.

What about the IC50 (Dipeptidyl peptidase 9) of the same compound?
Its IC50 is greater than 400 nM.

And the Activity [1]?
The Activity was “Active”.

What about the Activity [2] of the same compound?
Its Activity is “Non-Toxic”.

What about the Activity [3] of the same compound?
Its Activity is “Non-Toxic”.

And the Activity [4]?
Its Activity is “Non-Toxic”.

And the Activity [5]?
The Activity was “Non-Toxic”.

And the Activity [6]?
The Activity was “Non-Toxic”.

And the LD50 [7]?
The LD50 was 2000 mg/kg.

And the Activity [8]?
Its Activity is “Non-Toxic”.

What about the Activity [9] of the same compound?
The Activity was “Non-Toxic”.

What about the Activity [10] of the same compound?
The Activity was “Non-Toxic”.

What about the Activity [11] of the same compound?
Its Activity is “Non-Toxic”.

And the Activity [12]?
The Activity was “Non-Toxic”.

And the Activity [13]?
Its Activity is “Non-Toxic”.

What about the Activity (Rattus norvegicus [14]) of the same compound?
Its Activity is “Dose-Dependent Effect”.

What about the Activity (Rattus norvegicus [15]) of the same compound?
Its Activity is “Active”.

What about the Activity (Rattus norvegicus [16]) of the same compound?
Its Activity is “Active”.

And the Activity (Rattus norvegicus [17])?
Its Activity is “Dose-Dependent Effect”.

And the Activity (Rattus norvegicus [18])?
Its Activity is “Dose-Dependent Effect”.

And the Activity (Rattus norvegicus [19])?
The Activity was “Dose-Dependent Effect”.

And the Activity (Rattus norvegicus [20])?
The Activity was “Dose-Dependent Effect”.

And the Activity (Rattus norvegicus [21])?
The Activity was “Dose-Dependent Effect”.

And the Activity (Rattus norvegicus [22])?
Its Activity is “Active”.

What about the Activity (Rattus norvegicus [23]) of the same compound?
The Activity was “Active”.

And the Activity (Rattus norvegicus [24])?
The Activity was “Active”.

And the Activity (Rattus norvegicus [25])?
The Activity was “Active”.

What about the Activity (Rattus norvegicus [26]) of the same compound?
The Activity was “Active”.

And the Activity (Rattus norvegicus [27])?
The Activity was “Active”.

And the Activity (Rattus norvegicus [28])?
Its Activity is “Active”.

What about the Activity (Rattus norvegicus [29]) of the same compound?
The Activity was “inactive”.

What about the Activity (Rattus norvegicus [30]) of the same compound?
The Activity was “Active”.

What about the Activity (Rattus norvegicus [31]) of the same compound?
Its Activity is “Active”.
